Measured values published in patent US20250353873A1, “COMPOUNDS AND METHODS FOR MODULATING APOE EXPRESSION” (Ionis Pharmaceuticals, Inc., priority 2024, published 2025).
Strand notation (5' to 3'): a small letter for the sugar, then the base; units joined by * are phosphorothioate-linked, units joined directly phosphodiester-linked; [ ] holds rarer units or linkages, { } end groups; capitals alone tell only the bases. [ms] = mesyl phosphoramidate linkage; k = constrained ethyl (cEt); [5mC] = 5-methylcytosine; d = 2'-deoxy (DNA)

Legend:
human APOE RNA [1] = assay: Activity in APOE C57BL/6NTac-Apoeem7250 knock-in mice, single ICV bolus, 4 weeks (Example 10); assay type: in vivo; conditions: single ICV bolus 300 μg, 4 weeks post treatment, normalized to mouse Ppia
In short: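 Knock-in mice (2–4 per group) received one 300 μg ICV bolus of oligonucleotide or PBS. After four weeks, human APOE RNA in cortex and spinal cord measured by RT-qPCR (primer probe set RTS3073), normalized to mouse Ppia, expressed as % of PBS controls.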

human APOE RNA [2] = assay: Duration of action study in APOE C57BL/6NTac-Apoeem7250 knock-in mice (Example 16); assay type: in vivo; conditions: 300 μg ICV
Method: Modified oligonucleotides described above were tested in the APOE C57BL/6NTac-Apoeem7250 knock-in mouse model described above.
APOE C57BL/6NTac-Apoeem7250 knock-in mice were divided into groups of 2-4 mice each. Each mouse received a single intracerebroventricular (ICV) bolus of 300 μg of modified oligonucleotide. A group of 2-4 mice received a single ICV bolus with PBS as a negative control.
Mice were sacrificed at various timepoints as indicated in the table below and RNA was extracted from cortical brain tissue and spinal cord for quantitative real-time RT-PCR analysis of RNA expression of APOE using primer probe set RTS3073 (described herein above). APOE RNA levels were normalized to mouse Ppia. Mouse Ppia was amplified using primer probe set m_cyclo24 (described herein above). Results are presented as percent human APOE RNA relative to the amount of human APOE RNA in PBS treated animals, (% control). Each experiment is identified in separate tables below.

human APOE RNA [3] = assay: Dose-dependent inhibition of human APOE RNA in HepG2 cells, electroporation, 50,000 cells per well, RT-PCR normalized to GAPDH (Example 4, Tables 8-10); assay type: cell-based; conditions: HepG2, electroporation, 24-hour treatment
In short: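 HepG2 cells, 50,000 per well, electroporated with modified oligonucleotide at various concentrations. APOE RNA quantified by RT-PCR with human primer probe set RTS3073, normalized to GAPDH. Values are percent APOE RNA relative to untreated control cells.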

human APOE RNA [4] = assay: Activity in APOE C57BL/6NTac-Apoeem7250 knock-in mice, single ICV bolus, 8 weeks (Example 11); assay type: in vivo; conditions: single ICV bolus 300 μg, 8 weeks post treatment, normalized to mouse Ppia
In short: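 Human APOE knock-in C57BL/6NTac mice given one ICV bolus of 300 μg oligonucleotide; PBS-dosed group as control. At 8 weeks, cortex and spinal cord RNA measured by qRT-PCR (human probe RTS3073), normalized to mouse Ppia, expressed as % of PBS control.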

Substance | APOE RNA (% control) Cortex (human APOE RNA [1]) | APOE RNA (% control) Spinal Cord (human APOE RNA [1]) | APOE RNA (% control) Cortex (human APOE RNA [2]; 112 days post-dose) | APOE RNA (% control) Cortex (human APOE RNA [2]; 140 days post-dose) | APOE RNA (% control) Spinal Cord (human APOE RNA [2]; 112 days post-dose) | APOE RNA (% control) Spinal Cord (human APOE RNA [2]; 140 days post-dose) | APOE RNA (% UTC) (human APOE RNA [3]; 5 nM) | APOE RNA (% UTC) (human APOE RNA [3]; 13 nM) | APOE RNA (% UTC) (human APOE RNA [3]; 33 nM) | APOE RNA (% UTC) (human APOE RNA [3]; 82 nM) | APOE RNA (% UTC) (human APOE RNA [3]; 205 nM) | APOE RNA (% UTC) (human APOE RNA [3]; 512 nM) | APOE RNA (% UTC) (human APOE RNA [3]; 1,280 nM) | APOE RNA (% UTC) (human APOE RNA [3]; 3,200 nM) | APOE RNA (% UTC) (human APOE RNA [3]; 8,000 nM) | APOE RNA (% UTC) (human APOE RNA [3]; 20,000 nM) | IC50 (human APOE RNA [3]) | APOE RNA (% control) Cortex (human APOE RNA [4]; cortex) | APOE RNA (% control) Spinal Cord (human APOE RNA [4]; spinal cord)
1753989 (k[5mC]*dT[ms]kT*dG[ms]kG*dT*dG[ms]dA[ms]dA[ms]dT*d[5mC]*dT*dT*dT*dA[ms]kT*dT[ms]kA*dA[ms]kA; antisense) [Compound 1753989] | 54 % control | 49 % control | 58 % control | 72 % control | 117 % control | 79 % control | 113 % UTC | 108 % UTC | 102 % UTC | 79 % UTC | 94 % UTC | 76 % UTC | 49 % UTC | 33 % UTC | 25 % UTC | 16 % UTC | 1670 nM |  | 
1746810 (k[5mC]*dT[ms]kT*dG[ms]dG[ms]kT*dG[ms]dA[ms]dA[ms]dT*d[5mC]*dT*dT*dT*dA[ms]dT*dT[ms]kA*kA*kA; antisense) [Compound 1746810] | 56 % control | 80 % control | 63 % control | 82 % control | 80 % control | 106 % control | 109 % UTC | 106 % UTC | 95 % UTC | 77 % UTC | 68 % UTC | 46 % UTC | 36 % UTC | 13 % UTC | 8 % UTC | 5 % UTC | 490 nM |  | 
1746789 (k[5mC]*dT[ms]kT*dG[ms]kG*dT[ms]dG[ms]dA[ms]dA[ms]dT*d[5mC]*dT*dT*dT*dA[ms]dT*kT*kA*dA[ms]kA; antisense) [Compound 1746789] | 60 % control | 41 % control | 63 % control | 75 % control | 83 % control | 80 % control | 98 % UTC | 106 % UTC | 84 % UTC | 102 % UTC | 76 % UTC | 64 % UTC | 37 % UTC | 19 % UTC | 10 % UTC | 4 % UTC | 830 nM |  | 
1746799 (k[5mC]*dT[ms]kT*dG[ms]kG*dT[ms]dG[ms]dA[ms]dA[ms]dT*d[5mC]*dT*dT*dT*dA[ms]dT*kT*dA[ms]kA*kA; antisense) [Compound 1746799] | 47 % control | 42 % control | 46 % control | 70 % control | 78 % control | 66 % control | 115 % UTC | 130 % UTC | 153 % UTC | 125 % UTC | 106 % UTC | 84 % UTC | 52 % UTC | 23 % UTC | 24 % UTC | 33 % UTC | 1740 nM | 45 % control | 39 % control
1746790 (k[5mC]*dT[ms]kT*dG[ms]dG[ms]kT*dG[ms]dA[ms]dA[ms]dT*d[5mC]*dT*dT*dT*dA[ms]dT*kT*kA*dA[ms]kA; antisense) [Compound 1746790] | 53 % control | 61 % control | 75 % control | 77 % control | 62 % control | 108 % control | 104 % UTC | 133 % UTC | 94 % UTC | 112 % UTC | 89 % UTC | 63 % UTC | 20 % UTC | 24 % UTC | 15 % UTC | 8 % UTC | 750 nM |  | 
1746801 (k[5mC]*dT[ms]dT[ms]kG*kG*dT[ms]dG[ms]dA[ms]dA[ms]dT*d[5mC]*dT*dT*dT*dA[ms]dT*kT*dA[ms]kA*kA; antisense) [Compound 1746801] | 58 % control | 44 % control | 47 % control | 67 % control | 70 % control | 138 % control | 93 % UTC | 98 % UTC | 114 % UTC | 99 % UTC | 76 % UTC | 56 % UTC | 33 % UTC | 11 % UTC | 14 % UTC | 2 % UTC | 670 nM |  | 
1746803 (k[5mC]*dT[ms]dT[ms]kG*dG[ms]kT*dG[ms]dA[ms]dA[ms]dT*d[5mC]*dT*dT*dT*dA[ms]dT*kT*dA[ms]kA*kA; antisense) [Compound 1746803] | 51 % control | 39 % control | 54 % control | 73 % control | 74 % control | 82 % control | 93 % UTC | 83 % UTC | 84 % UTC | 114 % UTC | 68 % UTC | 61 % UTC | 31 % UTC | 29 % UTC | 22 % UTC | 39 % UTC | 1100 nM |  | 
1746811 (k[5mC]*dT[ms]dT[ms]kG*kG*dT[ms]dG[ms]dA[ms]dA[ms]dT*d[5mC]*dT*dT*dT*dA[ms]dT*dT[ms]kA*kA*kA; antisense) [Compound 1746811] | 61 % control | 62 % control | 71 % control | 89 % control | 95 % control | 103 % control | 99 % UTC | 86 % UTC | 83 % UTC | 95 % UTC | 70 % UTC | 54 % UTC | 47 % UTC | 23 % UTC | 12 % UTC | 5 % UTC | 740 nM |  | 
